Assay results taken from US10870635B2, “Compounds and their use as BACE1 inhibitors” (ALLGENESIS BIOTHERAPEUTICS, INC., priority 2015, dated 2020).

Columns and labels:
Type in all cases: biochemical
[1] = molecular target: Human recombinant cathepsin D (Homo sapiens (Human), UniProt P07339); assay: Cathepsin D activity assay; details: read-out: CatD IC50
Procedure: The development of a CatD activity assay is used to determine any potential cross reactivity for compounds selected from the β-secretase activity assay and to determine the selectivity to BACE1 inhibition. The CatD activity is reported for assessing target selectivity ratio (CatD IC50/BACE1 IC50).
The reagents for the cathepsin D assay were prepared as follows.
Human recombinant cathepsin D stored frozen in 2.0 μl aliquots was thawed and 42 μl of enzyme buffer (0.1M NaOAC, 0.2 M NaCl, pH 3.5) was added and incubated at 37° C. for 30 minutes. After 30 minutes the enzyme was further diluted to a final volume of 4.4 ml in enzyme buffer containing 5.0 mM DTT for immediate use in the cathepsin D assay.
The 7-methoxycoumarin-labeled peptide substrate (ES010) for cathepsin D was supplied as a 6.2 mM stock in DMSO. For use in the cathepsin D assay, the 6.2 mM stock was diluted to a 1.55 mM stock with DMSO. The 1.55 mM peptide stock in DMSO was further diluted 1:100 in reaction buffer (0.1M NaOAC, 0.2M NaCl, 0.1% Tween 20, 5.0 mM DTT, pH3.5) to create a 15.5 μM stock for use in the assay.
DMSO without compound served as a DMSO vehicle control for the cathepsin D assay. For each test compound, 30 μl of each dilution was pipetted into a separate well of a 96-well polypropylene plate. This polypropylene plate was labeled as the DMSO dilution plate and a plate map of test compound locations was made.
Test compounds from the DMSO dilution plate require a 1:100 dilution into reaction buffer before they can be added to the cathepsin D assay plate. To accomplish the 1:100 dilution of test compounds, 2.0 μl of each test compound at each concentration was pipetted from the DMSO dilution plate (using a multi-channel pipette calibrated to accurately dispense a 2.0 μl volume) into a new 96-well polypropylene plate using the plate map created for the DMSO dilution plate. This 96-well plate served as the inhibitor dilution plate. Next, 198 μl of reaction buffer was pipetted into each well of the inhibitor dilution plate (using a multi-channel pipette calibrated for accurate delivery of a 198 μl volume) and the pipetted test compound mixed by gentle up and down pipetting.
A1.0 mM stock of pepstatin A was made in DMSO and aliquotted into 5.0 μl samples for freezing and storage at −20° C. Upon thawing, 45 μl of DMSO (1:10 dilution) was added to create a 100 μM stock of pepstatin A in DMSO. The 100 μM Pepstatin A stock was further diluted 1:10 with DMSO to create a 10 μM stock in DMSO. […]
The assay plate was placed into a fluorescent plate reader with the excitation wavelength set at 320 nm and the emission wavelength set at 405 nm. Readings were collected every minute over a 30 minute collection period.

recombinant BACE2 = recombinant BACE2 (Homo sapiens (Human), UniProt Q9Y5Z0); assay: AnaSpec BACE2 fluorescent assay
Procedure: A BACE2 activity assay kit from AnaSpec (Fremont, Calif.) was used to determine the potency of the selected compounds by AnaSpec BACE2 fluorescent assay. To each well of a black 96-well micro plate, 50 μl of the β-secretase substrate (Hylite Fluor 488) diluted 1:100 using assay buffer was first added.
The compounds were serially diluted (1:2) into DMSO from their 10 mM stock concentrations in DMSO. The serially diluted inhibitors were diluted 1:100 into 1× assay buffer in a 96-well polypropylene plate (assay dilution plate). The final concentration of these compounds tested was 300 nM, 150 nM, 75 nM, 37.5 nM, 18.75 nM, 9.375 nM, 4.688 nM, 2.344 nM, 1.172 nM, 0.586 nM, and 0.293 nM.
A volume of 10 μl of the inhibitor from the assay dilution plate, a control inhibitor LY2886721 or inhibitor vehicle was then added to each well of the black 96-well micro plate.
The recombinant BACE2 was diluted in an assay buffer and the final BACE2 was 10.6 nM. The enzyme was added in a volume of 40 μl to each well of a black 96-well micro plate.
(§1) The reagents were mixed gently and the assay plate was placed into a POLARstar fluorescent plate reader with excitation wavelength set at 485 nm and the emission wavelength set at 520 nm. The plate reader was set to take readings every 5 minutes for up to 30 minutes or a 30 minute endpoint reading was used.
An appropriate integrated first-order rate equation was used to fit the data accumulated over a 30-40 minute collection period. Dose responses for inhibitors were run in duplicate.

[2] = molecular target: BACE1 (recombinant β-secretase enzyme) (Homo sapiens (Human), UniProt P56817); assay: AnaSpec BACE1 fluorescent assay (beta-secretase activity assay)
Procedure: A BACE1 activity assay kit from AnaSpec (Fremont, Calif.) was used to determine the potency of the selected BACE1 inhibitors by AnaSpec BACE1 fluorescent assay. The recombinant β-secretase enzyme was diluted 1:200 in 1× assay buffer (1 part of 1× assay buffer and 1 part of TBS containing 0.1% Tween 20). The enzyme was added in a volume of 40 μl to each well of a black 96-well micro plate.
The BACE1 inhibitors were serially diluted into DMSO from their 10 mM stock concentrations in DMSO. The serially diluted inhibitors were diluted 1:100 into 1× assay buffer in a 96-well polypropylene plate (assay dilution plate). The final concentration of the BACE1 inhibitor tested was 300 nM, 100 nM, 30 nM, 10 nM, 3 nM, 1 nM 0.3 nM, and 0.00 nM. Dose responses for inhibitors were run in duplicate.
A volume of 10 μl of the inhibitor from the assay dilution plate, a control inhibitor LY2886721 or inhibitor vehicle was then added to each well of the black 96-well micro plate containing BACE1.
as §1, with “To each well of the black 96-well micro plate, 50 μl of the β-secretase substrate (Hylite Fluor 488) diluted 1:100 using assay buffer was added. The reagents” for “The reagents”
An appropriate integrated first-order rate equation was used to fit the data accumulated over a 30-40 minute collection period.

Chain of BACE1 (recombinant β-secretase enzyme) (P56817 46-501): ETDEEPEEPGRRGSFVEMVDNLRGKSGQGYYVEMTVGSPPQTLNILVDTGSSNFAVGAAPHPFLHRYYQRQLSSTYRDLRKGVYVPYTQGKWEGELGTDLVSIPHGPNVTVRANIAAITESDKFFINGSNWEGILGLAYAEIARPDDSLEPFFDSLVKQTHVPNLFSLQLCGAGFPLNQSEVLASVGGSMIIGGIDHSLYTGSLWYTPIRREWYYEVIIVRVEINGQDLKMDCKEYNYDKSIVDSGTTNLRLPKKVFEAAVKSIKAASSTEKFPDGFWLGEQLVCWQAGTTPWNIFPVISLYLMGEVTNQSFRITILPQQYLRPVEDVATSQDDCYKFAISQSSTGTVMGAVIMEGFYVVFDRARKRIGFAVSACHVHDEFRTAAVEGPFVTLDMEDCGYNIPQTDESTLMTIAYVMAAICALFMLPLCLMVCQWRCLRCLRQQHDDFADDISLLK
Chain of Human recombinant cathepsin D (P07339 65-412): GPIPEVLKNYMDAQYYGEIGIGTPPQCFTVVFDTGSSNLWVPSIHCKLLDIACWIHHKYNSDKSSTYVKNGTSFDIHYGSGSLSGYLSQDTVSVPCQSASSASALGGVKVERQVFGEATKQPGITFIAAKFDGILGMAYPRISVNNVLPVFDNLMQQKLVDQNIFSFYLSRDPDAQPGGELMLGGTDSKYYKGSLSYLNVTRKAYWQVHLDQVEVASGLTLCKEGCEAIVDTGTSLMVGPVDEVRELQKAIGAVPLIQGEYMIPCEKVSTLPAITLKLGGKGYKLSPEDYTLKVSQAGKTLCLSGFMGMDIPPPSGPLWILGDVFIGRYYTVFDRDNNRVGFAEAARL
Chain of recombinant BACE2 (Q9Y5Z0 63-518): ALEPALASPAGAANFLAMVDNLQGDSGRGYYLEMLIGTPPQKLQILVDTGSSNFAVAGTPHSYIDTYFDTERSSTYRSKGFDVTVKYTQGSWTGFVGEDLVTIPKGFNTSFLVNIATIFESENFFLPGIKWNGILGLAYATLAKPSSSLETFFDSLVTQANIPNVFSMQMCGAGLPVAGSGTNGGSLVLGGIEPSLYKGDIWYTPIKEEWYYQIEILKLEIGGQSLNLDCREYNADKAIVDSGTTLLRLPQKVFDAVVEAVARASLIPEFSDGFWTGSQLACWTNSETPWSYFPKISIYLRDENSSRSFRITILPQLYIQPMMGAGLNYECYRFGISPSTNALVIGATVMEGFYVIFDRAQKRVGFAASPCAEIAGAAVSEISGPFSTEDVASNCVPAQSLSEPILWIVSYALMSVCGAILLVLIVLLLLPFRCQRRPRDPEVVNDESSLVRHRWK

IC50 [1] | IC50 (recombinant BACE2) | IC50 [2] | SMILES
17200 nM | 12 nM | 39 nM | CC#Cc1ccc2sc3ccc([C@]4(C)CS(=O)(=O)C(C)(C)C(N)=N4)cc3c2c1 [Example 103, (R)-5-Amino-3,6,6-trimethyl-3-(8-(prop-1-yn-1-yl)dibenzo[b,d]thiophen-2-yl)-3,6-dihydro-2H-1,4-thiazine 1,1-dioxide]
10800 nM | 16 nM | 25 nM | CC#Cc1ccc2sc3cc(F)c([C@]4(C)CS(=O)(=O)C(C)(C)C(=N)N4)cc3c2c1 [Example 109, (R)-5-Amino-3-(3-fluoro-8-(prop-1-yn-1-yl)dibenzo[b,d]thiophen-2-yl)-3,6,6-trim ethyl-3,6-dihydro-2H-1,4-thiazine 1,1-dioxide]
